Experimental findings from patent US20060247321A1, “Abnormal Cannabidiols as agents useful in combination therapy for lowering intraocular pressure” (priority 2005, published 2006) are described below.

Common to all, as to type: in vivo
The test system of assay [1] is ocular normotensive nonhuman primates (cynomolgus monkeys). In words: Outflow facility of monkeys treated with abnormal cannabidiol. Particulars: 0.1%. The text has this: (§1) Consequently, the intraocular pressure lowering effects of abnormal cannabidiol is anticipated to predominantly involve reduction of aqueous humor formation in humans and nonhuman primates.
The subject of assay [2] is Laser-induced unilaterally ocular hypertensive Cynomolgus monkeys. The assay is described as follows: Intraocular pressure by applanation pneumatonometry in conscious monkeys. Particulars: 0.1%, topical to one eye, once daily for 4 days, vehicle in fellow eye. As to the method:
(§2) Intraocular pressure was measured by applanation pneumatonometry in conscious animals. The test compound was administered topically to one eye while vehicle was given to the fellow eye in a masked fashion. Ocular normotensive Beagle dogs (males, females) were dosed once daily for five days. Laser-induced unilaterally ocular hypertensive Cynomolgus monkeys (females) were dosed once daily for 4 days. Student's paired t-test was used for statistical comparisons. Differences were considered statistically significant if the P-value is less than 0.05.

The test system of assay [3] is ocular normotensive nonhuman primates (cynomolgus monkeys). In words: Uveoscleral outflow of monkeys treated with abnormal cannabidiol. Particulars: 0.1%.
Description: as §1

Assay [4] deals with Ocular normotensive Beagle dogs. The assay is described as follows: Intraocular pressure by applanation pneumatonometry in conscious dogs. As to conditions: 0.1%, topical to one eye, once daily for five days, vehicle in fellow eye. As to the method:
as §2

[5] abbreviates: topically once-daily for 5 days.

Turning to Abnormal Cannabidiol, in assay [1] (topical once-daily for 5 days vs vehicle, mean ± sem, n = 6 animals), the “Outflow Facility, Ratio, Treated:Control, Treatment” value amounted to 0.93 ± 0.09. For the same substance, in assay [1] (topical once-daily for 5 days, mean ± sem, n = 6 animals), the “Outflow Facility, Treated Eye, Treatment” value was found to be 0.57 ± 0.08 ul/min/mm Hg. The “effect on total outflow facility compared to baseline and/or contralateral vehicle-treated control eyes” value in assay [1] (setting [5]) is “no significant effects”. The “effect on Monkey Intraocular Pressure versus time” value in assay [2] is “lowers IOP”. Further, in assay [3] (topical once-daily for 5 days vs vehicle, mean ± sem, n = 5 animals), the “Uveosclearal Outflow, Ratio, Treated:Control” value was 0.78 ± 0.05. Besides, the “Uveosclearal Outflow, Treated Eye” value in assay [3] (topical once-daily for 5 days, mean ± sem, n = 5 animals) worked out at 0.58 ± 0.17 µL/min. Besides, the “effect on uveoscleral outflow compared to baseline and/or contralateral vehicle-treated control eyes” value in assay [3] (setting [5]) was “no significant effects”. The “effect on Dog Intraocular Pressure versus time” value in assay [4] is given as “lowers IOP”.
